For this assay, the system named is Plasmodium berghei. Kind of assay: Luciferase/luciferin-expressing antifolate-resistant parasites were used to infect a culture of HepG2 cells that were pre-incubated with compounds. Infected hepatocytes emit light due to the luciferase reaction. Assay results are presented as the percent inhibition of light emission compared to control. […]. Format: functional. Particulars: sporozoite; for IC90: read-out: LUCIFERASE INFECTION ASSAY - IC90.

Structures are written as SMILES.

Regarding `CC(C)(C)c1cc(CCC(=O)NNC(=S)NC(=O)c2ccccc2)cc(C(C)(C)C)c1O`, the IC90 is 3.76 µM. Moreover, the IC50 (HEPG2TOX_HILL_SLOPE 3.85, HEPG2TOX_R_SQUARED 0.996, PBLUC_HILL_SLOPE 11.4, PBLUC_R_SQUARED 0.664, read-out: LUCIFERASE INFECTION ASSAY - IC50) stood at 3.1 µM.

Consider `Cc1ccc(C(C)C)c(Oc2nnnn2-c2ccccc2)c1`, for which the IC90 came out at 4.38 µM. Moreover, where the note is “HEPG2TOX_HILL_SLOPE 3.94, HEPG2TOX_R_SQUARED 0.78, PBLUC_HILL_SLOPE 282, PBLUC_R_SQUARED 0.16, read-out: LUCIFERASE INFECTION ASSAY - IC50”, the IC50 came to 4.34 µM.

As for `O=C1C(Cl)=C(Nc2ccccc2)C(=O)c2ccccc21`, the IC90 is greater than 11.6 µM. Besides, the IC50 (HEPG2TOX_HILL_SLOPE 3.85, HEPG2TOX_R_SQUARED 0.988, PBLUC_HILL_SLOPE 1.86, PBLUC_R_SQUARED 0.682, read-out: LUCIFERASE INFECTION ASSAY - IC50) is 3.78 µM.

Take `Cc1cc(C(C)(C)C)cc(C)c1C[n+]1c2n(c3ccc(C(F)(F)F)cc31)CCCCC2`: the IC90 turned out to be 2.85 µM. The IC50 (HEPG2TOX_HILL_SLOPE 3.95, HEPG2TOX_R_SQUARED 0.938, PBLUC_HILL_SLOPE 4.2, PBLUC_R_SQUARED 0.767, read-out: LUCIFERASE INFECTION ASSAY - IC50) was determined as 1.69 µM.

Consider `CC(C)c1ccc(NC(=O)Nc2nc(C(N)CCc3ccccc3)cs2)cc1` (stereo unspecified), for which the IC90 is 7.09 µM. In addition, where the note is “HEPG2TOX_HILL_SLOPE 3.95, HEPG2TOX_R_SQUARED 0.94, PBLUC_HILL_SLOPE 4.47, PBLUC_R_SQUARED 0.626, read-out: LUCIFERASE INFECTION ASSAY - IC50”, the IC50 came out at 4.34 µM.

For `Cc1cccc(NC2=C(Cl)C(=O)c3ccccc3C2=O)c1`, the IC90 amounted to 1.4 µM. For the setting “HEPG2TOX_HILL_SLOPE 3.88, HEPG2TOX_R_SQUARED 0.992, PBLUC_HILL_SLOPE 14.7, PBLUC_R_SQUARED 0.858, read-out: LUCIFERASE INFECTION ASSAY - IC50”, the IC50 is 1.2 µM.

Take `CNc1nc2cnc(Nc3ccc(C(C)C)cc3)cc2n1-c1cc(OC)c(OC)c(OC)c1`: the IC90 was greater than 10 µM. Besides, under “HEPG2TOX_HILL_SLOPE 3.92, HEPG2TOX_R_SQUARED 0.032, PBLUC_HILL_SLOPE 0.581, PBLUC_R_SQUARED 0.333, read-out: LUCIFERASE INFECTION ASSAY - IC50”, the IC50 was greater than 10 µM.

Take `CC(C)CCCC(C)C1CCC2(C)C3=C(CCC12C)C1(C)CCC(=O)C(C)(C)C1CC3` (stereo unspecified): the IC90 amounted to 6.57 µM. For the same compound, where the note is “HEPG2TOX_HILL_SLOPE 3.93, HEPG2TOX_R_SQUARED 0.974, PBLUC_HILL_SLOPE 2.18, PBLUC_R_SQUARED 0.307, read-out: LUCIFERASE INFECTION ASSAY - IC50”, the IC50 was 2.4 µM.

On to `O=C(NC1CCCC1)c1ccc(-c2cn3c(-c4ccc(Cl)cc4)cnc3cn2)cc1`, for which the IC90 came to 3.49 µM. Further, where the note is “HEPG2TOX_HILL_SLOPE 3.94, HEPG2TOX_R_SQUARED 0.381, PBLUC_HILL_SLOPE 3.66, PBLUC_R_SQUARED 0.738, read-out: LUCIFERASE INFECTION ASSAY - IC50”, the IC50 was found to be 1.91 µM.

`Cc1cc(Cl)c(C)c(S(=O)(=O)N(C)C(C)c2ccc(S(N)(=O)=O)cc2)c1Cl` (stereo unspecified): the IC90 is greater than 10 µM. The IC50 (HEPG2TOX_HILL_SLOPE 3.91, HEPG2TOX_R_SQUARED 0.817, PBLUC_HILL_SLOPE 1.91, PBLUC_R_SQUARED 0.506, read-out: LUCIFERASE INFECTION ASSAY - IC50) worked out at 6.84 µM.

As to `CCOc1ccccc1NS(=O)(=O)c1ccc(C(=O)OC)cc1`, the IC90 is greater than 10 µM. The IC50 (HEPG2TOX_HILL_SLOPE 3.9, HEPG2TOX_R_SQUARED 0.853, PBLUC_HILL_SLOPE 3.26, PBLUC_R_SQUARED 0.571, read-out: LUCIFERASE INFECTION ASSAY - IC50) was 7.52 µM.

`CCCCNC(=O)NC(=O)CNc1cc(S(=O)(=O)N2CCCCC2)ccc1OCC`: the IC90 was greater than 10 µM. Moreover, the IC50 (HEPG2TOX_HILL_SLOPE 3.87, HEPG2TOX_R_SQUARED 0.807, PBLUC_HILL_SLOPE 2.62, PBLUC_R_SQUARED 0.78, read-out: LUCIFERASE INFECTION ASSAY - IC50) stood at 5.03 µM.

Consider `COc1cccc(-c2cnn3ccc(Nc4ccc(OC)nc4)nc23)c1`, for which the concentration for an effect of 90% (IC90) worked out at 3.86 µM. Moreover, under “HEPG2TOX_HILL_SLOPE 3.92, HEPG2TOX_R_SQUARED 0.974, PBLUC_HILL_SLOPE 24.4, PBLUC_R_SQUARED 0.48, read-out: LUCIFERASE INFECTION ASSAY - IC50”, the IC50 came out at 3.53 µM.

Consider `CC(C)c1ccc(N2C(=O)/C(=C\c3ccccc3OCc3ccccn3)NC2=S)cc1`, for which the IC90 was 3.92 µM. In addition, the IC50 (HEPG2TOX_HILL_SLOPE 3.89, HEPG2TOX_R_SQUARED 0.964, PBLUC_HILL_SLOPE 2.57, PBLUC_R_SQUARED 0.661, read-out: LUCIFERASE INFECTION ASSAY - IC50) was determined as 1.67 µM.

Consider `COc1ccccc1Nc1ncccc1C(=O)Nc1nc2ccccc2[nH]1`, for which the IC90 was found to be 3.78 µM. Moreover, the IC50 (HEPG2TOX_HILL_SLOPE 3.87, HEPG2TOX_R_SQUARED 0.988, PBLUC_HILL_SLOPE 17.6, PBLUC_R_SQUARED 0.638, read-out: LUCIFERASE INFECTION ASSAY - IC50) was 3.34 µM.

`C=C1CC2(C)C(=CC1=O)CCC1C2CCC2(C)C(O)CCC12` (stereo unspecified): the IC90 was 5.89 µM. The IC50 (HEPG2TOX_HILL_SLOPE 3.95, HEPG2TOX_R_SQUARED 0.554, PBLUC_HILL_SLOPE 10.4, PBLUC_R_SQUARED 0.356, read-out: LUCIFERASE INFECTION ASSAY - IC50) came out at 4.77 µM.

With `C[C@]12CC[C@H](O)C[C@H]1CCC1C2[C@H](O)C[C@]2(C)[C@@H](C3=CC(=O)OC3)CC[C@]12O` (stereo partly specified), the IC90 was greater than 8.45 µM. For the same compound, where the note is “HEPG2TOX_HILL_SLOPE 3.83, HEPG2TOX_R_SQUARED 0.791, PBLUC_HILL_SLOPE 2.47, PBLUC_R_SQUARED 0.389, read-out: LUCIFERASE INFECTION ASSAY - IC50”, the IC50 was 3.98 µM.

On to `CC(C)c1ccc(Nc2ccn3ncc(-c4cccc(N)c4)c3n2)cc1`, for which the IC90 was greater than 9.61 µM. Besides, where the note is “HEPG2TOX_HILL_SLOPE 3.91, HEPG2TOX_R_SQUARED 0.953, PBLUC_HILL_SLOPE 9.39, PBLUC_R_SQUARED 0.444, read-out: LUCIFERASE INFECTION ASSAY - IC50”, the IC50 was found to be 8 µM.

As to `CN(C)Cc1ccc(CNC(=O)Cc2ccc(-c3ccccc3)cc2)cc1`, the IC90 is 7.76 µM. Also, the IC50 (HEPG2TOX_HILL_SLOPE 3.86, HEPG2TOX_R_SQUARED 0.943, PBLUC_HILL_SLOPE 3.55, PBLUC_R_SQUARED 0.451, read-out: LUCIFERASE INFECTION ASSAY - IC50) was 4.18 µM.

Regarding `CC(=O)Nc1cccc(-c2cn3c(-c4cccs4)cnc3cn2)c1`, the IC90 is greater than 9.87 µM. For the same compound, the IC50 (HEPG2TOX_HILL_SLOPE 3.98, HEPG2TOX_R_SQUARED 0.532, PBLUC_HILL_SLOPE 3.16, PBLUC_R_SQUARED 0.221, read-out: LUCIFERASE INFECTION ASSAY - IC50) was 5.11 µM.

In the case of `N#CC(C#N)=NNc1ccc(-c2ccccc2)cc1`, the IC90 was greater than 10 µM. Also, the IC50 (HEPG2TOX_HILL_SLOPE 3.84, HEPG2TOX_R_SQUARED 0.689, PBLUC_HILL_SLOPE 2.62, PBLUC_R_SQUARED 0.817, read-out: LUCIFERASE INFECTION ASSAY - IC50) amounted to 4.72 µM.

As to `CNc1cc(-c2ccc(O)cc2C)nc2ccnn12`, the IC90 worked out at 8.61 µM. Also, the IC50 (HEPG2TOX_HILL_SLOPE 3.86, HEPG2TOX_R_SQUARED 0.988, PBLUC_HILL_SLOPE 1.91, PBLUC_R_SQUARED 0.706, read-out: LUCIFERASE INFECTION ASSAY - IC50) came out at 2.73 µM.

Regarding `COc1cccc(CNCc2nc(NCc3cccc(OC)c3)c3c(C)c(C)sc3n2)c1`, the IC90 was greater than 10 µM. The IC50 (HEPG2TOX_HILL_SLOPE 3.99, HEPG2TOX_R_SQUARED 0.699, PBLUC_HILL_SLOPE 15.2, PBLUC_R_SQUARED 0.535, read-out: LUCIFERASE INFECTION ASSAY - IC50) was found to be 8.97 µM.

Take `CNc1snc(C)c1C(=O)N(C)Cc1ccc(C(C)C)cc1`: the IC90 is 0.0634 µM. The IC50 (HEPG2TOX_HILL_SLOPE 3.83, HEPG2TOX_R_SQUARED 0.742, PBLUC_HILL_SLOPE 1.58, PBLUC_R_SQUARED 0.865, read-out: LUCIFERASE INFECTION ASSAY - IC50) amounted to 0.0158 µM.

As to `CN(C)c1cccc(CNc2nccc3nc(-c4cccc(F)c4)[nH]c23)c1`, the IC90 was 5.76 µM. Besides, the IC50 (HEPG2TOX_HILL_SLOPE 3.96, HEPG2TOX_R_SQUARED 0.788, PBLUC_HILL_SLOPE 4.1, PBLUC_R_SQUARED 0.415, read-out: LUCIFERASE INFECTION ASSAY - IC50) turned out to be 3.37 µM.

Consider `CCCNC(=O)c1c(NC(=O)c2ccc(CC)cc2)nc2ccccn12`, for which the IC90 came to 3.4 µM. Also, under “HEPG2TOX_HILL_SLOPE 3.85, HEPG2TOX_R_SQUARED 0.726, PBLUC_HILL_SLOPE 11.9, PBLUC_R_SQUARED 0.398, read-out: LUCIFERASE INFECTION ASSAY - IC50”, the IC50 came out at 2.83 µM.

`COc1cc(Nc2ccn3ncc(-c4ccc(N)cc4)c3n2)cc(OC)c1OC`: the IC90 turned out to be 3.83 µM. The half-inhibitory concentration (IC50) (HEPG2TOX_HILL_SLOPE 3.9, HEPG2TOX_R_SQUARED 0.655, PBLUC_HILL_SLOPE 12, PBLUC_R_SQUARED 0.445, read-out: LUCIFERASE INFECTION ASSAY - IC50) came out at 3.19 µM.

With `Cc1oc2c(c1C(=O)N1CCC(C)CC1)C(=O)c1ccccc1C2=O`, the IC90 was greater than 10 µM. Moreover, for the setting “HEPG2TOX_HILL_SLOPE 3.97, HEPG2TOX_R_SQUARED 0.955, PBLUC_HILL_SLOPE 1.55, PBLUC_R_SQUARED 0.65, read-out: LUCIFERASE INFECTION ASSAY - IC50”, the IC50 worked out at 2.73 µM.

The term IC50 denotes the concentration at which inhibition is half-maximal. By IC90 is commonly meant the concentration needed for an effect of 90%.

Values taken from ChEMBL document CHEMBL4483862, “Open-source discovery of chemical leads for next-generation chemoprotective antimalarials” (2018).
